The test system of assay [1] is DLD-1. Kind of assay: Cytotoxicity against human DLD1 cells assessed as growth inhibition. Format: functional, cell-based.
Assay [2] deals with HeLa. Kind of assay: Cytotoxicity against human HeLa cells assessed as growth inhibition. Type of assay: functional, cell-based.
Assay [3] deals with HeLa. In words: Cytotoxicity against human HeLa cells harboring class 3 beta tubulin mutant assessed as growth inhibition. Type of assay: functional, cell-based.
Assay [4] in a line: Cytotoxicity against multidrug-resistant human A2780AD cells overexpressing p-gp assessed as growth inhibition. Format: functional, cell-based. The conditions noted are these: A2780 ADR.
The subject of assay [5] is A2780. Kind of assay: Cytotoxicity against human A2780 cells assessed as growth inhibition. Format: functional, cell-based.
Assay [6] has as its system A2780. Kind of assay: Resistance factor, ratio of IC50 for multidrug-resistant human A2780AD cells overexpressing p-gp to IC50 for human A2780 cells. Type of assay: functional.
Assay [7] deals with HeLa. In words: Resistance factor, ratio of IC50 for human HeLa cells harboring class 3 beta tubulin mutant to IC50 for human HeLa cells. Format: functional.

`COc1cc2c(c(OC)c1OC)-c1ccc(NCCN3CCC[C@@H]3CO)c(=O)cc1[C@@H](NC(C)=O)CC2`: in assay [1], the IC50 is over 10 µM.
As for `COc1cc2c(c(OC)c1OC)-c1ccc(NCCN)c(=O)cc1[C@@H](NC(C)=O)CC2`, the IC50 in assay [1] stood at 0.9 µM.
For `CNCCNc1ccc2c(cc1=O)[C@@H](NC(C)=O)CCc1cc(OC)c(OC)c(OC)c1-2`, the IC50 came to 0.586 µM in assay [2]; 0.554 µM in assay [3]; 0.784 µM in assay [4]; 0.13 µM in assay [1]; 0.502 µM in assay [5]. Also, the “Ratio IC50” value in assay [6] was 1.6; in assay [7], 0.95.
Take `COc1cc2c(c(OC)c1OC)-c1ccc(NCCN3CCCC(O)C3)c(=O)cc1[C@@H](NC(C)=O)CC2` (mixture of isomers): the IC50 in assay [1] is 8.1 µM.
On the same count and under the same terms, under `COc1cc2c(c(OC)c1OC)-c1ccc(NCCCCCCN3CCCC(O)C3)c(=O)cc1[C@@H](NC(C)=O)CC2` (mixture of isomers) stands over 10 µM; under `COc1cc2c(c(OC)c1OC)-c1ccc(NCCN3CCC[C@H]3CO)c(=O)cc1[C@@H](NC(C)=O)CC2`, over 10 µM; under `COc1cc2c(c(OC)c1OC)-c1ccc(NCCN(C)C(=O)OC(C)(C)C)c(=O)cc1[C@@H](NC(C)=O)CC2`, over 10 µM.
Take `COc1cc2c(c(OC)c1OC)-c1ccc(NCCO)c(=O)cc1[C@@H](NC(C)=O)CC2`: the IC50 was found to be 0.192 µM in assay [2]; 0.164 µM in assay [3]; 0.241 µM in assay [4]; 0.0692 µM in assay [1]; 0.0711 µM in assay [5]. Further, the results for the “Ratio IC50” value in assay [6] and in assay [7] were 3.3 and 0.85, respectively.
Regarding `COc1cc2c(c(OC)c1OC)-c1ccc(NCCCCCCN)c(=O)cc1[C@@H](NC(C)=O)CC2`, the IC50 in assay [1] was over 10 µM.
With `CC(=O)O[C@H]1C(=O)[C@@]2(C)[C@H]([C@H](OC(=O)c3ccccc3)[C@]3(O)C[C@H](OC(=O)[C@H](O)[C@@H](NC(=O)c4ccccc4)c4ccccc4)C(C)=C1C3(C)C)[C@]1(OC(C)=O)CO[C@@H]1C[C@@H]2O` [PACLITAXEL], the IC50 in assay [3] was 0.0112 µM; in assay [4], over 1 µM; in assay [5] it was 1.1 µM.
`COc1cc2c(c(OC)c1OC)-c1ccc(OC)c(=O)cc1[C@@H](NC(C)=O)CC2` [COLCHICINE]: the IC50 in assay [2] was found to be 0.0082 µM; in assay [3], 0.0097 µM; in assay [4], 0.0168 µM; in assay [1] it was 0.0455 µM; in assay [5], 0.0067 µM. Also, the “Ratio IC50” value in assay [6] amounted to 2.5; in assay [7], 1.2.

Usually IC50 stands for the concentration that gives 50% inhibition.
